Assay results taken from patent US11110092B2, “Methods of treating hematologic cancers” (BIOCRYST PHARMACEUTICALS, INC, priority 2007, dated 2021).
Like-named read-outs stand apart in the source and are kept apart here. Peptide text beside a SMILES is read from it. * marks the point of attachment. Cbz = O=C(OCc1ccccc1)*; CH2F = FC*

Legend:
[1] = system: mitochondrial transmembrane potential in CLL cells; assay: Loss of mitochondrial transmembrane potential (DiOC6 staining, flow cytometry); type: cell-based, human; conditions: for effect of pre-incubation on Δψm loss induced by forodesine: ROS scavenger pre-incubation
Experimental: (§1) Cells were incubated for different time points with forodesine at doses ranging from 1 to 12 μM in the presence or absence of 10-20-30 μM of deoxyguanosine (dGuo). When indicated, cells were pre-incubated for 1 hour with the pan-caspase inhibitor z-VAD.fmk (benzyloxy-carbonyl-Val-Ala-Asp-fluoro-methylketone; Bachem, Bubendorf, Switzerland) at 80 the caspase-8 inhibitor z-IETD.fmk at 50 μM (Z-Ile-Glu(OMe)Thr-DL-Asp (OMe)-fluoromethylketone, Bachem), 2′-deoxycytidine (5-10-20 μM, Sigma), N-acetyl-L-cysteine (NAC, 25 mM), Tiron (5 mM, 4,5-Dihydroxy-1,3-Benzene-disulfonic acid, Sigma) or GSH (2 mM; Sigma). […] Loss of mitochondrial transmembrane potential (ΔΨm) were evaluated by staining cells with 20 nM of DiOC6 (3,3-diexyloxacarbocyanine iodide, Molecular Probes) and reactive oxygen species (ROS) production was determined by staining cells with 2 μM dihydroethidine (DHE; Molecular Probes) and flow cytometry analysis.

[2] = system: primary leukemic cells from patients with CLL; set-up: cell death: dose or concentration left out as unconfirmed
Experimental: The present in vitro study was carried out in primary leukemic lymphocytes from 43 patients diagnosed with CLL according to the World Health Organization classification. Informed consent was obtained from each patient.
Peripheral blood mononuclear cells (PBMCs) cells were isolated by Ficoll/Hypaque sedimentation (Seromed, Berlin, Germany). Cells were either used directly or cryopreserved in liquid nitrogen in the presence of 10% dimethyl sulfoxide and 90% heat-inactivated fetal bovine serum (FBS, Gibco Paisley, Scotland, UK).
Cells were incubated for different time points with forodesine at doses ranging from 1 to 12 μM in the presence or absence of 10-20-30 μM of deoxyguanosine (dGuo). When indicated, cells were pre-incubated for 1 hour with the pan-caspase inhibitor z-VAD.fmk (benzyloxy-carbonyl-Val-Ala-Asp-fluoro-methylketone; Bachem, Bubendorf, Switzerland) at 80 the caspase-8 inhibitor z-IETD.fmk at 50 μM (Z-Ile-Glu(OMe)Thr-DL-Asp (OMe)-fluoromethylketone, Bachem), 2′-deoxycytidine (5-10-20 μM, Sigma), N-acetyl-L-cysteine (NAC, 25 mM), Tiron (5 mM, 4,5-Dihydroxy-1,3-Benzene-disulfonic acid, Sigma) or GSH (2 mM; Sigma). […] Cell viability and apoptosis induction was analyzed by changes in cell complexity by means of FSC/SSC, quantification of phosphatidyl serine (PS) exposure by double staining with Annexin-V conjugated to fluorescein isothiocyanate (FITC) and propidium iodide (PI) (BenderMedsystems, Vienna, Austria). For the analysis of apoptosis in the CD3^+ and CD19^− populations, PBMCs were labeled simultaneously with anti-CD3-FITC (Immunotech, Marseille, France), anti-CD19-PE (Becton Dickinson) and Annexin-V-APC. Cell viability and cytotoxicity were plotted as percentage with respect to control cells. Loss of mitochondrial transmembrane potential (ΔΨm) were evaluated by staining cells with 20 nM of DiOC6 (3,3-diexyloxacarbocyanine iodide, Molecular Probes) and reactive oxygen species (ROS) production was determined by staining cells with 2 μM dihydroethidine (DHE; Molecular Probes) and flow cytometry analysis. […] In brief, cells were washed once in PBS and fixed in paraformaldehyde 4%, permeabilized with 0.1% saponin and 0.5% bovine serum albumin (BSA). […] After several washes in permeabilization buffer, cells were incubated with a secondary goat anti-mouse FITC (DAKO) or goat anti-rabbit FITC (Supertechs) antibody and washed again with permeabilization buffer. Ten thousand stained cells per sample were then analyzed by flow cytometry.

ROS in CLL primary cells = assay: Reactive oxygen species production (dihydroethidine staining, flow cytometry); type: cell-based, human; conditions: for effect of pre-incubation on ROS production induced by forodesine: ROS scavenger pre-incubation
Experimental: as §1

[3] = system: FOXO1 and FOXO3a in CLL cells; assay: FOXO1 and FOXO3a levels by immunoblotting; type: cell-based, human; conditions: CLL cells treated with forodesine
BCL-2 in CLL cells = assay: BCL-2 protein levels by immunoblotting; type: cell-based, human; conditions: forodesine treatment
BID in CLL cells = assay: BID processing by immunoblotting; type: cell-based, human; conditions: forodesine treatment
p53 in CLL cells = assay: p53 protein stabilization by immunoblotting; type: cell-based, human; conditions: CLL cases with no 17p deletion
p73 in CLL cells = assay: p73 mRNA (real time RT-PCR) and TAp73 protein levels; type: cell-based, human; conditions: all CLL cases analyzed
Experimental: Cells were lysed for 15 min in RIPA buffer supplemented with protease and phosphatase inhibitors (leupeptine 10 μg/ml, apoprotinine 10 μg/ml, 1 μM PMSF, 1 μM sodium ortovanadate, 1 μM NaF, 2 μM sodium pyrophosphate decahydrate (Sigma)). Total cellular proteins were separated by SDS-PAGE under reducing conditions and transferred to Immobilon-P (Millipore) membranes. […] Equal protein loading was confirmed with β-actin or α-tubulin expression and relative protein quantification was done with Image Gauge Fujifilm software (Fuji). […] The expression levels of p73 and Mcl-1 were determined in an ABI Prism 7900HT Sequence Detection System (Applied Biosystems, Foster City, Calif.) using pre-designed Assay-on-demand (Applied Biosystems). The relative expression of each gene was quantified by the comparative cycle threshold (Ct) method (ΔΔCt), using GUS as an endogenous control. mRNA expression levels were given as arbitrary quantitative PCR units, taking as a calibrator the control sample (untreated) of each case.

BAX and BAK in CLL cells = assay: BAX and BAK activation by flow cytometry (conformational change); type: cell-based, human; conditions: incubation of CLL cells with forodesine
[4] = system: XIAP and survivin in CLL cells; assay: XIAP and survivin levels by immunoblotting; type: cell-based, human; conditions: forodesine treatment
[5] = system: intracellular dGTP in CLL primary cells; assay: Measurement of intracellular dGTP levels (DNA polymerase assay); type: cell-based, human; conditions: forodesine 2 μM and dGuo 10 μM; 26 CLL patients; 18 hours
Experimental: 15×10^6 of CLL primary cells were incubated with or without forodesine (2 μM) and dGuo (10 μM) or fludarabine (1 μg/ml) for 18 hours and the nucleotides were extracted with 60% methanol and intracellular dGTP levels were quantified by DNA polymerase assay as modified by Sherman and Fyfe (Sherman et al., Anal Biochem, 180(2), 222-226 (1989)). Data were expressed in fold induction of intracellular dGTP levels respect of control cells. In parallel, cell viability at 24 and 48 hours were also evaluated.

[6] = system: dCK phosphorylated at Ser-74 in CLL cells; assay: Western blot of dCK phosphorylation at Ser-74; type: cell-based, human
[7] = Gandhi et al. 2005; Korycka et al. 2007; cited from earlier work
[8] = system: caspase-9, -8 and -3 in CLL cells; assay: Caspase activation by immunoblotting; type: cell-based, human; conditions: as early as 10 hours of forodesine treatment
MCL-1 in CLL cells = assay: MCL-1 protein levels by immunoblotting; type: cell-based, human; conditions: forodesine treatment
BIM in CLL cells = assay: BIM protein levels by immunoblotting; type: cell-based, human; conditions: forodesine treatment
[9] = caspase-8 inhibitor pre-incubation

**Q.** With `CC[C@H](C)[C@H](NC(=O)OCc1ccccc1)C(=O)N[C@@H](CCC(=O)OC)C(=O)N[C@H](C(=O)N[C@@H](CC(=O)OC)C(=O)CF)[C@@H](C)O` (racemic) [z-IETD.fmk, Z-Ile-Glu(OMe)Thr-DL-Asp (OMe)-fluoromethylketone] as the compound, how does the “reversion of ΔΨm loss induced by forodesine” value [1, 9] read?
**A.** more pronounced

**Q.** What about the “effect on forodesine apoptosis induction (Annexin V staining)” value [2, 9] of the same compound?
**A.** partially blocked

**Q.** What does the source list for `CCOC(=O)CNC(=O)[C@H](CS)NC(=O)CC[C@H](N)C(=O)O` [GSH, glutathione-reduced ethyl ester]?
**A.** effect of pre-incubation on Δψm loss induced by forodesine [1]: reduced Δψm loss; effect of pre-incubation on ROS production induced by forodesine (ROS in CLL primary cells): moderated

**Q.** With `Nc1nc2c(ncn2[C@H]2C[C@H](O)[C@@H](CO)O2)c(=O)[nH]1` [dGuo, deoxyguanosine] as the compound, how does the “cytotoxic effect of agent alone” value [2] read?
**A.** did not induce a cytotoxic effect

**Q.** Which mean cytotoxicity [2] does the source give for `Nc1nc(F)nc2c1ncn2[C@@H]1O[C@H](CO)[C@@H](O)[C@@H]1O` [Fludarabine] here?
**A.** 25.1±13%

**Q.** And the “mean cytotoxicity as single agents” value [2]?
**A.** 50.6±11%

**Q.** What does the source list for `CC(=O)N[C@@H](CS)C(=O)O` [NAC, N-acetyl-L-cysteine]?
**A.** effect of pre-incubation on Δψm loss induced by forodesine [1]: reduced Δψm loss; effect of pre-incubation on ROS production induced by forodesine (ROS in CLL primary cells): practically reverted ROS production

**Q.** With Rituximab as the compound, how does the cell death ([2]; single agent or combined with forodesine, 24 hours) read?
**A.** low

**Q.** For `Cl.O=c1[nH]cnc2c([C@@H]3N[C@H](CO)[C@@H](O)[C@H]3O)c[nH]c12` [Forodesine], which “mitochondrial transmembrane potential (Δψm)” value ([1]; early times, evident after 10 hours) is on record?
**A.** induced loss of mitochondrial transmembrane potential

**Q.** And the “FOXO1 and FOXO3a levels” value [3]?
**A.** induced an increase in both, FOXO1 and FOXO3a

**Q.** And the BCL-2 protein levels (BCL-2 in CLL cells)?
**A.** not affected

**Q.** What about the BID protein (BID in CLL cells) of the same compound?
**A.** induced a decreased of BH3-only protein BID

**Q.** And the p53 protein (p53 in CLL cells)?
**A.** induce stabilization of p53 protein

**Q.** What about the “p73 mRNA and TAp73 protein levels” value (p73 in CLL cells) of the same compound?
**A.** clear up-regulation

**Q.** And the “activation of BAX and BAK” value (BAX and BAK in CLL cells)?
**A.** induced the conformational change of BAX and BAK

**Q.** What about the “XIAP and survivin levels” value [4] of the same compound?
**A.** decrease of the inhibitors of apoptosis XIAP and survivin

**Q.** What about the “increase in intracellular dGTP levels with respect to control basal levels” value [5] of the same compound?
**A.** up to 96 times fold increase

**Q.** And the ROS production (ROS in CLL primary cells; CLL primary cells, evident after 10 hours)?
**A.** induced the production of ROS

**Q.** And the “phosphorylated form (at Ser-74) of dCK” value ([6]; western blot in CLL cells)?
**A.** increase in the phosphorylated form

**Q.** And the “cytotoxic effect of agent alone” value [2]?
**A.** did not induce a cytotoxic effect

**Q.** And the “share of cases with cytotoxic effect between 40-60%” value [2]?
**A.** 41.8%

**Q.** What about the “response of p53 deleted CLL cases” value ([2]; 11 CLL patients with 17p deletions, Forodesine 2 μM+dGuo 20 μM, 48 hours) of the same compound?
**A.** high response

**Q.** What about the “response in samples with no or low in vitro response to bendamustine 25 μM and/or fludarabine 1 μg/ml” value ([2]; 12 of 32 CLL patient samples) of the same compound?
**A.** high response

**Q.** And the mean cytoxicity ([2]; CLL cells with high levels of ZAP-70, 22 CLL patients)?
**A.** 57.9%±12

**Q.** What about the “mean cytoxicity with respect to control” value ([2]; CLL cells with low levels of ZAP-70, 17 CLL patients) of the same compound?
**A.** 58.1%±11

**Q.** What about the “response of CLL cells with low or no sensitivity to Bendamustine or Fludarabine” value ([2]; Forodesine 2 μM and dGuo 10-20 μM) of the same compound?
**A.** good response

**Q.** What about the “cell death (Annexin-V+ staining)” value ([2]; forodesine 2-5-10 μM with dGuo 10-20 or 30 μM, 48 hours) of the same compound?
**A.** induced cell death

**Q.** And the “response in CLL cells with 13q deletion, 11q deletion and 17p deletion” value ([2]; forodesine-induced cytotoxicity)?
**A.** good response

**Q.** What about the “cell death, CLL fresh samples” value ([2]; n=10, 48 hours) of the same compound?
**A.** 56.6%±6.4

**Q.** And the “cell death, cryopreserved primary CLL samples” value ([2]; n=32, 48 hours)?
**A.** 58.3%±11

**Q.** And the toxicity profile [7]?
**A.** low toxicity profile

**Q.** What about the “activation of caspase-9, -8 and -3 (processing of pro-inactive form)” value [8] of the same compound?
**A.** dose- and time-dependent activation

**Q.** And the MCL-1 protein levels (MCL-1 in CLL cells)?
**A.** considerably decreased

**Q.** What about the BIM protein levels (BIM in CLL cells) of the same compound?
**A.** induced an increase

**Q.** For `Cl.Cn1c(CCCC(=O)O)nc2cc(N(CCCl)CCCl)ccc21` [Bendamustine], which “phosphorylated form (at Ser-74) of dCK” value [6] is on record?
**A.** not exerted

**Q.** With `Nc1ccn([C@H]2C[C@H](O)[C@@H](CO)O2)c(=O)n1` [deoxycytidine, 2′-deoxycytidine] as the compound, how does the “effect of pre-incubation on forodesine-induced cell death” value ([2]; deoxycytidine 5-10 μM) read?
**A.** inhibited forodesine-induced cell death

**Q.** What about the “effect on cell death induced by bendamustine” value ([2]; deoxycytidine pre-incubation) of the same compound?
**A.** not reverted

**Q.** What about the “effect on loss of cell viability induced by fludarabine” value ([2]; deoxycytidine pre-incubation) of the same compound?
**A.** reverted the loss of cell viability

**Q.** Which “effect of pre-incubation on Δψm loss induced by forodesine” value [1] does the source give for `O=S(=O)(O)c1cc(O)c(O)c(S(=O)(=O)O)c1` [Tiron, 4,5-Dihydroxy-1,3-Benzene-disulfonic acid] here?
**A.** reduced Δψm loss

**Q.** And the “effect of pre-incubation on ROS production induced by forodesine” value (ROS in CLL primary cells)?
**A.** practically reverted ROS production

**Q.** Which “effect on phosphatidylserine exposure after forodesine treatment” value ([2]; broad range caspase inhibitor pre-incubation, forodesine 24 hours) does the source give for `COC(=O)C[C@H](NC(=O)[C@H](C)NC(=O)[C@@H](NC(=O)OCc1ccccc1)C(C)C)C(=O)CF` [z-VAD.fmk, benzyloxy-carbonyl-Val-Ala-Asp-fluoro-methylketone] (Cbz-Val-Ala-Asp(OMe)-CH2F) here?
**A.** partially reduced phospatidylserine exposure
